# Target: T1, Recombinant full length human OGA enzyme (Homo sapiens, UniProt O60502)
# T1 construct: Recombinant full length human OGA enzyme was purchased from Origene; purchased Origene
# T1 sequence (O60502 1-916): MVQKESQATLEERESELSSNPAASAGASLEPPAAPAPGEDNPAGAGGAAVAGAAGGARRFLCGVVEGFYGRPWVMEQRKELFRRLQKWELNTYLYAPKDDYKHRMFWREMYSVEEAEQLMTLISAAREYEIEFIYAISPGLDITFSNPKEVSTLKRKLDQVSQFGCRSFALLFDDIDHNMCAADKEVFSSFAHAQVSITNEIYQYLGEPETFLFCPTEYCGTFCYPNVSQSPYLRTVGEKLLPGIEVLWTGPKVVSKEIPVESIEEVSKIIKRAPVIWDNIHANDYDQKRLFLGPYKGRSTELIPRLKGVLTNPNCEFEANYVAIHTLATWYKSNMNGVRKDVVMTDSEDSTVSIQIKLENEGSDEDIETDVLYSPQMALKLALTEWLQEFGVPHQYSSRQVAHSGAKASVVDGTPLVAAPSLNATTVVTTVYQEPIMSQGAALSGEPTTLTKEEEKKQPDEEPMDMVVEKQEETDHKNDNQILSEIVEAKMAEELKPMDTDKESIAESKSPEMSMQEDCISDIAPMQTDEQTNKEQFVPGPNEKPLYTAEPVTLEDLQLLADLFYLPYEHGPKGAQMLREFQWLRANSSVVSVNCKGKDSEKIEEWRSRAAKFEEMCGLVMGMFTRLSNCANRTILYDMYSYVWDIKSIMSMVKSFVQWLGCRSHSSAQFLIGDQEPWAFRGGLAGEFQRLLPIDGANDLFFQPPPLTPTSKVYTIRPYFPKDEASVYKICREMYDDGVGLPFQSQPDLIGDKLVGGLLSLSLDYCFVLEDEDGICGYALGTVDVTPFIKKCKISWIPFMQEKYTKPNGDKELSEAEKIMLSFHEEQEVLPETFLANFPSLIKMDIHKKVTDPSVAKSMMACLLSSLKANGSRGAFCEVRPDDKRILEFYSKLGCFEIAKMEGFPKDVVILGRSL
# Experiment: OGA enzyme inhibition biochemical assay
# Conditions: 1 nM OGA, 100 μM 4-MUGlcNAc (Km), pH 6.4, 90 minutes at room temperature, 10-point dose-response from 20 μM
# Description: N-(5-(((2S,4R)-4-([1,2,4]triazolo[4,3-a]pyrazin-3-yloxy)-2-methylpyrrolidin-1-yl)methyl)-4-fluorothiazol-2-yl)acetamide: The title compound was prepared in an analogous manner as Example 172 from 3-bromo-[1,2,4]triazolo[4,3-a]pyrazine. LCMS (ESI): [M+H] 392. ^1H NMR (600 MHz, CHLOROFORM-d) δ 10.75 (br s, 1H), 9.04 (s, 1H), 9.03 (s, 1H), 7.24 (s, 1H), 4.99-5.06 (m, 1H), 4.01 (d, J=14.49 Hz, 1H), 3.64 (d, J=14.67 Hz, 1H), 3.40 (d, J=11.55 Hz, 1H), 2.75 (dd, J=5.78, 11.46 Hz, 1H), 2.61-2.72 (m, 2H), 2.32 (s, 4H), 1.84-1.92 (m, 1H), 1.30 (d, J=5.87 Hz, 4H). ^19F NMR (565 MHz, CHLOROFORM-d) 6-115.92 (br s, 1F). OGA Enzyme Inhibition Biochemical Assay
# Recombinant full length human OGA enzyme was purchased from Origene. 4-MUGlCNAc substrate was purchased from Sigma. All other reagents were purchased from Sigma or Fisher. Assay buffer consists of the McIlvaine buffer system, pH 6.4 (0.2M Na2HPO4 mixed with 0.1M citric acid) and 0.01% BSA. Reactions consist of 1 nM OGA, 100 μM 4-MUGlcNAc (Km), and compound in a final volume of 10 μl. Reactions were incubated for 90 minutes at room temperature and quenched with 40 μl of 3M glycine, pH 10 and read on a Perkin Elmer Envision plate reader (Ex: 355 nm/Em: 460 nm). Compounds were tested with a 10-point dose-response starting from 20 μM with a 4-fold dilution. Data, as presented in Table 1 below, was fit using GraphPad Prism using a 4-parameter fit with variable slope.
row,Structure (SMILES),IC50 [nM]
1,"CC(=O)Nc1ncc(CN2C[C@H](Oc3cncc4nccn34)C[C@@H]2C)s1 [Example 99, N-(5-(((2S,4R)-4-(imidazo[1,2-a]pyrazin-5-yloxy)-2-methylpyrrolidin-1-yl)methyl)thiazol-2-yl)acetamide]",< 1
2,"CC(=O)Nc1ncc(CN2C[C@H](Oc3nccn4ccnc34)C[C@@H]2C)s1 [Example 95, N-(5-(((2S,4R)-4-(imidazo[1,2-a]pyrazin-8-yloxy)-2-methylpyrrolidin-1-yl)methyl)thiazol-2-yl)acetamide]",5.3
3,"CC(=O)Nc1nc(F)c(CN2C[C@H](Oc3ccn4ccnc4c3)C[C@@H]2C)s1 [Example 43, N-(4-fluoro-5-(((2S,4R)-4-(imidazo[1,2-a]pyridin-7-yloxy)-2-methylpyrrolidin-1-yl)methyl)thiazol-2-yl)acetamide]",< 1
4,"CC(=O)Nc1nc(F)c(CN2C[C@H](Oc3nccc4c3cnn4C)C[C@@H]2C)s1 [Example 138, N-(4-fluoro-5-(((2S,4R)-2-methyl-4-((1-methyl-1H-pyrazolo[4,3-c]pyridin-4-yl)oxy)pyrrolidin-1-yl)methyl)thiazol-2-yl)acetamide]",< 1
5,"CC(=O)Nc1nc(F)c(CN2C[C@H](Oc3ccc4ncnn4c3C)C[C@@H]2C)s1 [Example 105, N-(4-fluoro-5-(((2S,4R)-2-methyl-4-((5-methyl-[1,2,4]triazolo[1,5-a]pyridin-6-yl)oxy)pyrrolidin-1-yl)methyl)thiazol-2-yl)acetamide]",< 1
6,"CC(=O)Nc1nc(F)c(CN2C[C@H](Oc3nncc4cc(F)ccc34)C[C@@H]2C)s1 [Example 133, N-(4-fluoro-5-(((2S,4R)-4-((6-fluorophthalazin-1-yl)oxy)-2-methylpyrrolidin-1-yl)methyl)thiazol-2-yl)acetamide]",< 1
7,"CC(=O)Nc1nc(F)c(CN2C[C@H](Oc3ncc4ncn(C)c4n3)C[C@@H]2C)s1 [Example 113, N-(4-fluoro-5-(((2S,4R)-2-methyl-4-((9-methyl-9H-purin-2-yl)oxy)pyrrolidin-1-yl)methyl)thiazol-2-yl)acetamide]",< 1
8,"CC(=O)Nc1nc(F)c(CN2C[C@H](Oc3ccn4ncnc4c3)C[C@@H]2C)s1 [Example 107, N-(5-(((2S,4R)-4-([1,2,4]triazolo[1,5-a]pyridin-7-yloxy)-2-methylpyrrolidin-1-yl)methyl)-4-fluorothiazol-2-yl)acetamide]",< 1
9,"CC(=O)Nc1ncc(CN2C[C@H](Oc3ccnc4ccsc34)C[C@@H]2C)s1 [Example 5, N-(5-(((2S,4R)-2-methyl-4-(thieno[3,2-b]pyridin-7-yloxy)pyrrolidin-1-yl)methyl)thiazol-2-yl)acetamide]",< 1
10,"CC(=O)Nc1nc(F)c(CN2C[C@H](Oc3ccnc4cnn(C)c34)C[C@@H]2C)s1 [Example 135, N-(4-fluoro-5-(((2S,4R)-2-methyl-4-((1-methyl-1H-pyrazolo[4,3-b]pyridin-7-yl)oxy)pyrrolidin-1-yl)methyl)thiazol-2-yl)acetamide]",< 1
11,"CC(=O)Nc1nc(F)c(CN2C[C@H](Oc3ncnc4cccc(F)c34)C[C@@H]2C)s1 [Example 124, N-(4-fluoro-5-(((2S,4R)-4-((5-fluoroquinazolin-4-yl)oxy)-2-methylpyrrolidin-1-yl)methyl)thiazol-2-yl)acetamide]",< 1
12,"CC(=O)Nc1ncc(CN2C[C@H](Oc3nccc4nccn34)C[C@@H]2C)s1 [Example 97, N-(5-(((2S,4R)-4-(imidazo[1,2-c]pyrimidin-5-yloxy)-2-methylpyrrolidin-1-yl)methyl)thiazol-2-yl)acetamide]",< 1
13,"CC(=O)Nc1ncc(CN2C[C@H](Oc3ccc4cc(C(N)=O)ccc4n3)C[C@@H]2C)s1 [Example 2, 2-(((3R,5S)-1-((2-acetamidothiazol-5-yl)methyl)-5-methylpyrrolidin-3-yl)oxy)quinoline-6-carboxamide]",< 1
14,"CC(=O)Nc1ncc(CN2C[C@H](Oc3ccc4cccnc4n3)C[C@@H]2C)s1 [Example 81, N-(5-(((2S,4R)-4-((1,8-naphthyridin-2-yl)oxy)-2-methylpyrrolidin-1-yl)methyl)thiazol-2-yl)acetamide]",< 1
15,"CC(=O)Nc1ncc(CN2C[C@H](Oc3ccn4ccnc4c3)C[C@@H]2C)s1 [Example 42, N-(5-(((2S,4R)-4-(imidazo[1,2-a]pyridin-7-yloxy)-2-methylpyrrolidin-1-yl)methyl)thiazol-2-yl)acetamide]",< 1
16,"CC(=O)Nc1nc(F)c(CN2C[C@H](Oc3cc4cnn(C)c4cn3)C[C@@H]2C)s1 [Example 90, N-(4-fluoro-5-(((2S,4R)-2-methyl-4-((1-methyl-1H-pyrazolo[3,4-c]pyridin-5-yl)oxy)pyrrolidin-1-yl)methyl)thiazol-2-yl)acetamide]",< 1
17,"CC(=O)Nc1nc(F)c(CN2C[C@H](Oc3nn4ccnc4s3)C[C@@H]2C)s1 [Example 111, N-(4-fluoro-5-(((2S,4R)-4-(imidazo[2,1-b][1,3,4]thiadiazol-2-yloxy)-2-methylpyrrolidin-1-yl)methyl)thiazol-2-yl)acetamide]",< 1
18,"COc1cc2ccnc(Cl)c2cc1O[C@@H]1C[C@H](C)N(Cc2sc(NC(C)=O)nc2F)C1 [Example 132, N-(5-(((2S,4R)-4-((1-chloro-6-methoxyisoquinolin-7-yl)oxy)-2-methylpyrrolidin-1-yl)methyl)-4-fluorothiazol-2-yl)acetamide]",< 1
19,"CC(=O)Nc1ncc(CN2C[C@H](Oc3nccc4oc(C)cc34)C[C@@H]2C)s1 [Example 16, N-(5-(((2S,4R)-2-methyl-4-((2-methylfuro[3,2-c]pyridin-4-yl)oxy)pyrrolidin-1-yl)methyl)thiazol-2-yl)acetamide]",< 1
20,"CC(=O)Nc1nc(F)c(CN2C[C@H](Oc3ccc4c(nnn4C)n3)C[C@@H]2C)s1 [Example 152, N-(4-fluoro-5-(((2S,4R)-2-methyl-4-((1-methyl-1H-[1,2,3]triazolo[4,5-b]pyridin-5-yl)oxy)pyrrolidin-1-yl)methyl)thiazol-2-yl)acetamide]",< 1
21,"CC(=O)Nc1ncc(CN2C[C@H](Oc3cccn4ccnc34)C[C@@H]2C)s1 [Example 156, N-(5-(((2S,4R)-4-(imidazo[1,2-a]pyridin-8-yloxy)-2-methylpyrrolidin-1-yl)methyl)thiazol-2-yl)acetamide]",< 1
22,"CC(=O)Nc1nc(F)c(CN2C[C@H](Oc3cn4nccc4cn3)C[C@@H]2C)s1 [Example 171, N-(4-fluoro-5-(((2S,4R)-2-methyl-4-(pyrazolo[1,5-a]pyrazin-6-yloxy)pyrrolidin-1-yl)methyl)thiazol-2-yl)acetamide]",< 1
23,"CC(=O)Nc1ncc(CN2C[C@H](Oc3nccc4occc34)C[C@@H]2C)s1 [Example 22, N-(5-(((2S,4R)-4-(furo[3,2-c]pyridin-4-yloxy)-2-methylpyrrolidin-1-yl)methyl)thiazol-2-yl)acetamide]",2.1
24,"CC(=O)Nc1ncc(CN2C[C@H](Oc3ccc4ncoc4c3)C[C@@H]2C)s1 [Example 45, N-(5-(((2S,4R)-4-(benzo[d]oxazol-6-yloxy)-2-methylpyrrolidin-1-yl)methyl)thiazol-2-yl)acetamide]",< 1
25,"CC(=O)Nc1ncc(CN2C[C@H](Oc3cnc4nc(C)oc4c3)C[C@@H]2C)s1 [Example 168, N-(5-(((2S,4R)-2-Methyl-4-((2-methyloxazolo[4,5-b]pyridin-6-yl)oxy)pyrrolidin-1-yl)methyl)thiazol-2-yl)acetamide]",< 1

# Source: US12522595B2, “Bicyclic ether O-glycoprotein-2-acetamido-2-deoxy-3-D-glucopyranosidase inhibitors” (BIOGEN MA INC., priority 2019, dated 2026)
